Source: ChEMBL document CHEMBL4346659, “Design, synthesis and evaluation of novel 7H-pyrrolo[2,3-d]pyrimidin-4-amine derivatives as potent, selective and reversible Bruton's tyrosine kinase (BTK) inhibitors for the treatment of rheumatoid arthritis” (Eur J Med Chem, 2019)

Columns and labels:
[1] = molecular target: T1, Tyrosine-protein kinase BTK (Homo sapiens, UniProt Q06187); test: Inhibition of BTK (unknown origin) at 1 uM in the presence of ATP by caliper mobility shift assay relative to control
[2] = molecular target: T1, Tyrosine-protein kinase BTK; test: Inhibition of BTK (unknown origin) at 0.1 uM in the presence of ATP by caliper mobility shift assay relative to control
Ramos = test: Antiproliferative activity against human Ramos cells; type: functional, cell-based; details: Homo sapiens, Ramos
JeKo-1 = test: Antiproliferative activity against human JeKo1 cells; type: functional, cell-based; details: Homo sapiens, JeKo-1
Daudi = test: Antiproliferative activity against human Daudi cells; type: functional, cell-based; details: Homo sapiens, Daudi
[3] = molecular target: T1, Tyrosine-protein kinase BTK; test: Inhibition of BTK (unknown origin) in the presence of ATP by caliper mobility shift assay

T1 sequence (Q06187 whole entry): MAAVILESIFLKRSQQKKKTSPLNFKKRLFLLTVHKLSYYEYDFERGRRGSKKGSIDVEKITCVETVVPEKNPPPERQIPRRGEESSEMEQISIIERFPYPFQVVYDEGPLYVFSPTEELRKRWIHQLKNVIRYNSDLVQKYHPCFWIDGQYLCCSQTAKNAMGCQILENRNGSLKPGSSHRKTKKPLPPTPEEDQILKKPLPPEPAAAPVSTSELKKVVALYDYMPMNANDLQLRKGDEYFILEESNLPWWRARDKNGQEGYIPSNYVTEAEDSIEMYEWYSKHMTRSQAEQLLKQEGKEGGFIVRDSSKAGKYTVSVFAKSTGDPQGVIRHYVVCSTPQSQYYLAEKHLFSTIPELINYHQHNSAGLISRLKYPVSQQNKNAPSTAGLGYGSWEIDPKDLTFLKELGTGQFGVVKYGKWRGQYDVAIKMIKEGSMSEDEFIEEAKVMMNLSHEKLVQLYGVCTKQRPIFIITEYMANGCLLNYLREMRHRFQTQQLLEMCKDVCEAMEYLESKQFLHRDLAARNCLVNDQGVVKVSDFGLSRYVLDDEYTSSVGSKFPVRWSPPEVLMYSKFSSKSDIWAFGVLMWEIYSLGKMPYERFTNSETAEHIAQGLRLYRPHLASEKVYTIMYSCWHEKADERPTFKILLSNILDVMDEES

Row | SMILES | inhibition [1] | inhibition [2] | IC50 (Ramos) | IC50 (JeKo-1) | IC50 (Daudi) | IC50 [3]
1 | CN(C)CC(=O)N1CC[C@H](n2cc(-c3ccc4c(c3)OCO4)c3c(N)ncnc32)C1 | 23.7% | -0.41% | 21 µM | 28.4 µM | 23.1 µM | –
2 | Nc1ncnc2c1c(-c1ccc3c(c1)OCO3)cn2[C@H]1CCN(CC2CCCO2)C1 (some centres undefined) | 18.9% | 3.01% | 27.1 µM | 3.88 µM | 25.9 µM | –
3 | Nc1ncnc2c1c(-c1ccc3c(c1)OCO3)cn2C[C@@H]1CCCN(C[C@@H]2CO2)C1 | 49.2% | 16.2% | 13.1 µM | 8.85 µM | 10.5 µM | –
4 | COC(CN1CC[C@H](n2cc(-c3ccc4c(c3)OCO4)c3c(N)ncnc32)C1)OC | 37.1% | 4.71% | 24.9 µM | 2.45 µM | 53.5 µM | –
5 | Nc1ncnc2c1c(-c1ccc3c(c1)OCO3)cn2[C@H]1CCN(CC2CC2)C1 | 15.2% | 0.04% | 16.9 µM | 1.45 µM | 24.6 µM | –
6 | Nc1ncnc2c1c(-c1ccc3c(c1)OCO3)cn2[C@@H]1CCN(C[C@H]2CO2)C1 | 42% | 15.2% | > 50 µM | 32.5 µM | 53.8 µM | > 0.5 µM
7 | Nc1ncnc2c1c(-c1cc3ccccc3o1)cn2[C@H]1CCN(C[C@@H]2CO2)C1 | 59.1% | 20.2% | 6.74 µM | 2.82 µM | 4.51 µM | –
8 | CC(C)(C)c1ccc(C(=O)Nc2ccc(-c3cn([C@H]4CCN(C[C@@H]5CO5)C4)c4ncnc(N)c34)cc2)cc1 | 53.8% | 15.7% | 2.97 µM | 3.29 µM | 5.98 µM | –
9 | Nc1ncnc2c1c(-c1ccc3c(c1)OCO3)cn2[C@H]1CCN(CC2CO2)C1 (some centres undefined) | 96.6% | 70.1% | – | – | – | 0.0455 µM
10 | CC(C)(C)c1ccc(Oc2ccc(-c3cn([C@H]4CCN(C[C@@H]5CO5)C4)c4ncnc(N)c34)cc2)cc1 | 19.1% | 5.96% | 11.2 µM | 14.8 µM | 6.49 µM | –
11 | Nc1ncnc2c1c(-c1cnc3[nH]ccc3c1)cn2C[C@H]1CCCN1C[C@@H]1CO1 | 26.9% | 13.7% | – | – | – | –
12 | CC1(C(=O)N2CC[C@H](n3cc(-c4ccc5c(c4)OCO5)c4c(N)ncnc43)C2)COC1 | 22.4% | -0.35% | 39 µM | 36.4 µM | 30.5 µM | –
13 | Nc1ncnc2c1c(-c1ccc(Oc3ccccc3)cc1)cn2C[C@H]1CCCN1C[C@@H](O)CO | 62.5% | 23.9% | 13.5 µM | 9.54 µM | 14.4 µM | –
14 | Nc1ncnc2c1c(-c1ccc3c(c1)OCO3)cn2C1CCN(C[C@@H]2CO2)CC1 | 89.4% | 60.2% | 32.8 µM | 12.9 µM | 21.3 µM | –
15 | Nc1ncnc2c1c(-c1cnc3[nH]ccc3c1)cn2[C@H]1CCN(C[C@@H]2CO2)C1 | 46.6% | 12.8% | 4.65 µM | 9.44 µM | 2.99 µM | –
16 | Nc1ncnc2c1c(-c1ccc(C(=O)Nc3ccc(Oc4ccccc4)cc3)cc1)cn2[C@H]1CCN(C[C@@H]2CO2)C1 | 36.9% | 7.58% | 3.63 µM | 2.07 µM | 4.39 µM | –
17 | CC(C)(C)c1ccc(COc2ccc(-c3cn([C@H]4CCN(C[C@@H]5CO5)C4)c4ncnc(N)c34)cc2)cc1 | 7.63% | 3.73% | 4.21 µM | 5.97 µM | 6.97 µM | –
18 | Nc1ncnc2c1c(-c1ccc(NC(=O)c3ccccc3)cc1)cn2[C@H]1CCN(C[C@@H]2CO2)C1 | 22.9% | 2.53% | 2.25 µM | 5.39 µM | 3.18 µM | –
19 | Nc1ncnc2c1c(-c1ccc3c(c1)OCO3)cn2[C@H]1CCN(C(=O)C2CC2)C1 | 34% | -3.67% | – | – | – | 0.045 µM
20 | Nc1ncnc2c1c(-c1ccc3c(c1)OCO3)nn2C[C@H]1CCCN1C[C@@H]1CO1 | 56.7% | 13.9% | 47.4 µM | 43.2 µM | 30.5 µM | –
21 | COCCN1CC[C@H](n2cc(-c3ccc4c(c3)OCO4)c3c(N)ncnc32)C1 | 8.09% | 14.3% | 21.2 µM | 6.74 µM | 4.3 µM | –
22 | N#CCCN1CC[C@H](n2cc(-c3ccc4c(c3)OCO4)c3c(N)ncnc32)C1 | 67.8% | 21.6% | 13.2 µM | 1.84 µM | 10.2 µM | –
23 | Nc1ncnc2c1c(-c1ccc3c(c1)OCO3)cn2C1CCN(C2COC2)CC1 | 45.7% | 9.5% | 38 µM | 16.9 µM | 24.1 µM | –
